Measured values: PubChem BioAssay (NCI)
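Where inhibition never reached the appropriate level, the endpoint shown equals the highest concentration tested. Otherwise, values were interpolated linearly from a five-concentration, 48-hour dose response in 96-well plates. Abbreviation: GI50, concentration required for 50% inhibition of growth. At the TGI there is no net growth.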 Active and inactive are the calls of the source. Rule as the data show it: active = GI50 below about 0.43 µM; inactive = the rest.

Key:
Test in all cases: NCI anticancer screen, dose series, 48 h
SF-539 CNS = test system: SF-539 CNS
786-0 renal = test system: 786-0 renal
UACC-257 melanoma = test system: UACC-257 melanoma
M14 melanoma = test system: M14 melanoma
SK-OV-3 ovarian = test system: SK-OV-3 ovarian
MDA-MB-231 breast = test system: MDA-MB-231 breast
NCI-H226 lung = test system: NCI-H226 lung

Row | SMILES | TGI (SF-539 CNS) [µM] | TGI (786-0 renal) [µM] | TGI (UACC-257 melanoma) [µM] | TGI (M14 melanoma) [µM] | TGI (SK-OV-3 ovarian) [µM] | GI50 (SF-539 CNS) [µM] | GI50 (MDA-MB-231 breast) [µM] | TGI (MDA-MB-231 breast) [µM] | GI50 (786-0 renal) [µM] | GI50 (UACC-257 melanoma) [µM] | GI50 (NCI-H226 lung) [µM] | TGI (NCI-H226 lung) [µM] | GI50 (SK-OV-3 ovarian) [µM] | GI50 (M14 melanoma) [µM] | outcome (SK-OV-3 ovarian)
1 | CN(C)CCNC(=O)c1cccc2ccc(-c3ccncc3)nc12 | 9.64 | 34.2 | 6.66 | 16.1 | 6.95 |  |  |  |  |  |  |  |  |  | 
2 | CCCCCCCC(=O)OCC/C=C/C1OC1C1OC(=O)/C=C\C=C\c2nc(oc2C)/C=C(/C)CCC2OC2C1OC(=O)NC(C)=O (stereo not drawn) | 0.0819 | 0.203 | 0.125 |  | 1.33 | 0.0396 | 0.0625 | 6.38 | 0.033 | 0.0301 | 0.0426 | 0.161 | 0.0643 |  | 
3 | CC(C)(CO)N1CCN(C(=S)Nc2ccccc2)CC1 | > 100 | > 100 | > 100 | > 100 | > 100 |  |  | > 100 |  |  |  | > 100 |  |  | 
4 | CC/C=C\C[C@H](F)C/C=C1/C(=O)C=C[C@@H]1C/C=C\CCCC(=O)O | 17 | 13.3 | 11.4 | 20 | > 32.5 | 7.21 | 12.7 | > 32.5 | 7.24 | 5.23 | 8.8 | 21 | 12.6 | 6.53 | 
5 | COc1ccc(-c2onc(N)c2-c2cc(OC)c3c(c2)OCO3)cc1 | 11.8 | > 100 | > 100 | 7.28 | 22.6 | 2.74 | 3.4 | 65.8 | 7.24 | 3.43 | 14.2 | > 100 | 3.79 | 1.49 | 
6 | Cc1ccc2c(c1)Sc1c(ccc3ccccc13)N2 | > 100 | > 100 | > 100 | > 100 | > 100 | 20.7 | 42.1 | > 100 | > 100 | > 100 | 11.8 | > 100 | > 100 | > 100 | 
7 | O=C1c2cccc([N+](=O)[O-])c2C(=O)N1c1ncn[nH]1 | 36.8 | > 100 | > 100 | > 100 | > 100 |  |  | > 100 |  |  |  | > 100 |  |  | 
8 | O=C(CCc1nnc2sc(-c3ccc(Cl)cc3Cl)nn12)c1nc2ccccc2[nH]1 | 4.63 | 2.89 | 4.31 | 1.03 | 3.46 | 1.98 | 0.746 | 2.21 | 1.48 | 1.83 | 0.663 | 1.56 | 1.77 | 0.282 | 
9 | CC/C=C\C[C@@H](O)C/C=C1/C(=O)C=C[C@H]1C/C=C\CCCC(=O)OC | 11.9 | 11.5 | 8.36 | 8.38 | 19 | 3.22 | 6.06 | 20.5 | 3.29 | 3.38 | 2.14 | 5.04 | 6.49 | 2.39 | 
10 | COc1ccc2nc3c(C(=O)NCCN(C)C)cccc3nc2c1 | 10.9 | > 100 | 19.9 | 19.5 | 47.4 |  |  |  |  |  |  | 38.6 |  |  | 
11 | O=C(Nc1ccncc1)C(=O)c1cn(S(=O)(=O)c2cccc(F)c2)c2ccccc12 | > 100 | > 100 | > 100 |  | 76.5 | 4.41 | 10.8 | > 100 | 3.64 | 13.5 | 16.9 | > 100 | 20.3 |  | 
12 | C=C(C[C@](O)(C(=O)/C=C/c1ccc(Cl)cc1)C(=O)OC)c1ccccc1 | 4.93 | 3.24 | 25.8 | 11.3 | 23.1 | 2.12 |  |  | 1.66 | 13.1 | 3.48 | 16.3 | 11.1 | 2.98 | 
13 | C#CCNC(=O)c1cccc2c1cc(C)n2-c1nc2c(c(NCc3ccccc3)n1)CCCC2 | 0.07 | 0.0788 |  | 0.0439 | 0.232 | 0.0245 | 0.0216 | 0.0546 | 0.0292 |  | 0.017 | 0.0491 | 0.056 | 0.0195 | 
14 | COc1ccc(C(=O)C#Cc2cnc(OC)nc2OC)cc1 |  |  | 5.63 | 2.64 | 27.2 |  |  | 86700 | 22000 | 40800 | 16900 |  |  | 27900 | inactive
15 | Cc1ccc(C(=O)N(CCCN)C(c2oc3cc(Cl)ccc3c(=O)c2Cc2ccccc2)C(C)C)cc1 (stereo not drawn) |  | 2.11 | 1.97 |  | 1.57 | < 0.01 | < 0.01 |  | < 0.01 | < 0.01 | 1.47 | 3.23 | < 0.01 |  | 
16 | O=C1c2ccccc2C(=O)N1CCc1ncc[nH]1 | > 100 | > 100 | > 100 | > 100 |  |  |  |  |  |  |  |  |  |  | 
17 | O=C(CC1C(=O)NN(c2ccc(Br)cc2)C1=O)c1cc(O)ccc1O (stereo not drawn) | 27.3 | > 50 | > 50 | > 50 |  | 11.3 | 8.44 | 22.4 | 22.4 | 19.6 | 10.4 | 36.9 |  | 31.2 | 
